Reference: ChEMBL document CHEMBL4418278, “Serine racemase inhibitor” (2014)

target: T1, Serine racemase (Homo sapiens) (UniProt Q9GZT4); test: Inhibition of recombinant human SRR expressed in Escherichia coli assessed as reduction in conversion of L-serine to D-serine at 1 mM incubated for => 8 hrs in presence of PLP and recombinant D-serine dehydratase 1 by spectrophotometry relative to control
T1 sequence (whole entry): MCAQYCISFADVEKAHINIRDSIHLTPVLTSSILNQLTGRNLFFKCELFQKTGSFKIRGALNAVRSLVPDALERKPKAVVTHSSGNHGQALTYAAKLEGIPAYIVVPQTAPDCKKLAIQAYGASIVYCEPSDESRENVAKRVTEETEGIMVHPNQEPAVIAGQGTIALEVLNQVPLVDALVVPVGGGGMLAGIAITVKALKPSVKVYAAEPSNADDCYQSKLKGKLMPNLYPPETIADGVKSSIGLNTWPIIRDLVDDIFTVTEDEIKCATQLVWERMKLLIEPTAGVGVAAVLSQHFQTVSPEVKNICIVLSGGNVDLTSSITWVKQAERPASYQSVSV

Row | inhibition [%] | Compound
1 | 0 | O=C(Cc1ccc(F)cc1)NNC(=S)NC(=O)Cc1ccccc1
2 | 33 | O=C(/C=C/c1c(F)cc(F)cc1F)NC(=S)NNC(=O)Cc1ccccc1
3 | 33 | O=C(/C=C/c1c(Cl)cc(Cl)cc1Cl)NC(=S)NNC(=O)Cc1cccs1
4 | 31 | COc1cccc(OC)c1/C=C/C(=O)NC(=S)NNC(=O)c1cccs1
5 | 53 | O=C(COc1ccc(Br)cc1)NCC(=O)NC1CCCCC1
6 | 24 | Cc1cccc(CC(=O)NNC(=S)NC(=O)/C=C/c2cc(Br)cc(Br)c2)c1
7 | 79 | Cc1ccc(S(=O)(=O)NCCNC(=O)Nc2ccccc2)cc1
8 | 76 | COc1ccccc1NC(=S)NCCNS(=O)(=O)c1ccc(C)cc1
9 | 61 | COc1ccc(S(=O)(=O)NCCNC(=O)Nc2ccc(Cl)c(Cl)c2)cc1
10 | 63 | COc1ccc(C)cc1NC(=S)NCCNS(=O)(=O)c1ccc(C)cc1
11 | 49 | O=C(/C=C/c1cc(Br)cc(Br)c1)NC(=S)NNC(=O)Cc1ccc(F)cc1
12 | 69 | Cc1ccc(S(=O)(=O)NCCNC(=S)Nc2ccccc2Cl)cc1
13 | 62 | Cc1ccc(S(=O)(=O)NCCNC(=O)NS(=O)(=O)c2ccccc2C)cc1
14 | 31 | COc1cccc(CC(=O)NNC(=S)NC(=O)/C=C/c2cc(Br)cc(Br)c2)c1
15 | 86 | COCCCNC(=S)NCCNS(=O)(=O)c1ccc(C)cc1
16 | 59 | Cc1ccc(S(=O)(=O)NCCNC(=O)Nc2ccc(Cl)cc2Cl)cc1
17 | 76 | Cc1ccc(S(=O)(=O)NCCNC(=O)Nc2ccc(F)cc2)cc1
18 | 45 | O=C(/C=C/c1ccc(F)cc1)NC(=S)NNC(=O)Cc1ccccc1
19 | 45 | Cc1cccc(CC(=O)NNC(=S)NC(=O)Cc2ccccc2)c1
20 | 55 | O=C(/C=C/c1ccc(-c2ccccc2)cc1)NC(=S)NNC(=O)Cc1cccs1
21 | 52 | O=C(/C=C/c1cc(Br)cc(Br)c1)NC(=S)NNC(=O)c1cccs1
22 | 55 | COc1ccc(S(=O)(=O)NCCCNC(=O)Nc2ccc(Cl)c(Cl)c2)cc1
23 | 54 | Cc1ccc(S(=O)(=O)Nc2ccccc2NC(=O)Nc2ccc(F)cc2)cc1
24 | 20 | O=C(/C=C/c1cc(Br)cc(Br)c1)NC(=S)NNC(=O)Cc1ccccc1

Row | inhibition [%] | Compound
25 | 62 | COc1ccc(NC(=O)CNC(=O)COc2ccccc2)c(C)c1
26 | 35 | O=C(/C=C/c1ccc([N+](=O)[O-])cc1)NC(=S)NNC(=O)Cc1cccs1
27 | 57 | Cc1ccc(S(=O)(=O)NCCNC(=O)Nc2ccc(Br)cc2Cl)cc1
28 | 24 | COc1cccc(OC)c1/C=C/C(=O)NC(=S)NNC(=O)Cc1ccccc1
29 | 61 | O=C(Cc1cccs1)NNC(=S)NC(=O)Cc1ccccc1
30 | 67 | O=C(Cc1cc(F)cc(F)c1)NNC(=S)NC(=O)Cc1ccccc1
31 | 41 | O=C(Cc1ccccc1)NNC(=S)NC(=O)Cc1ccccc1
32 | 64 | COc1cccc(NC(=O)NCCNS(=O)(=O)c2ccc(C)cc2)c1
33 | 23 | O=C(/C=C/c1ccc(Cl)cc1)NC(=S)NNC(=O)Cc1cccs1
34 | 46 | O=C(/C=C/c1ccc(F)cc1)NC(=S)NNC(=O)c1cccs1
35 | 49 | Cc1ccc(S(=O)(=O)Nc2ccccc2NC(=O)Nc2ccc(Cl)c(Cl)c2)cc1
36 | 74 | O=C(Cc1c(F)cccc1F)NNC(=S)NC(=O)Cc1ccccc1
37 | 52 | Cc1ccc(S(=O)(=O)NCCNC(=O)Nc2ccc(Cl)c(Cl)c2)cc1
38 | 70 | O=C(CCc1ccccc1)NNC(=S)NC(=O)Cc1ccccc1
39 | 24 | Cc1ccc(/C=C/C(=O)NC(=S)NNC(=O)Cc2cccs2)cc1
40 | 27 | COc1ccc(/C=C/C(=O)NC(=S)NNC(=O)Cc2cccs2)c(OC)c1
41 | 31 | O=C(/C=C/c1cc(Br)cc(Br)c1)NC(=S)NNC(=O)c1ccccc1
42 | 31 | O=C(/C=C/c1cc(Br)cc(Br)c1)NC(=S)NNC(=O)CCc1ccccc1
43 | 55 | O=C(NCCCNS(=O)(=O)c1ccc(Br)cc1)Nc1ccc(Cl)c(Cl)c1
44 | 54 to 85 | O=C(O)CC(=O)O
45 | 49 | O=C(NCCNS(=O)(=O)c1ccc(Br)cc1)Nc1ccc(Cl)c(Cl)c1
46 | 28 | O=C(/C=C/c1cc(Br)cc(Br)c1)NC(=S)NNC(=O)Cc1cccs1
47 | 44 | O=C(/C=C/c1ccc(C(F)(F)F)cc1)NC(=S)NNC(=O)Cc1cccs1
48 | 58 | Cc1ccc(S(=O)(=O)NCCNC(=S)Nc2ccccc2C)cc1

target: T1, Serine racemase (Homo sapiens); test: Inhibition of recombinant human SRR expressed in Escherichia coli assessed as reduction in conversion of L-serine to D-serine at 0.1 mM incubated for => 8 hrs in presence of PLP and recombinant D-serine dehydratase 1 by spectrophotometry relative to control

Row | inhibition [%] | Compound
49 | 67 | Cc1ccc(S(=O)(=O)NCC(=O)NCc2ccc(Br)cc2F)cc1
50 | 99 | O=C(COc1ccc(Br)cc1)NCC(=O)NC1CCCCC1
51 | 56 | Cc1ccc(S(=O)(=O)NCC(=O)Nc2ccc(OCc3ccccc3)cc2)cc1
52 | 60 | Cc1ccc(S(=O)(=O)NCC(=O)NNC(=O)Cc2ccc(F)cc2)cc1
53 | 67 | O=C(Cc1ccc(F)cc1)NNC(=S)NC(=O)CC1CCCCC1
54 | 65 | O=C(CNS(=O)(=O)Cc1ccccc1)OCc1ccccc1
55 | 67 | O=C(Cc1ccc(F)cc1)NNC(=S)NC(=O)Cc1ccc(F)cc1
56 | 52 | Cc1ccc(S(=O)(=O)NCC(=O)Nc2cccc(Br)c2)cc1
57 | 87 | COc1ccc(NC(=O)CNC(=O)COc2ccccc2)c(C)c1
58 | 66 | O=C(Cc1ccc(F)cc1)NNC(=S)NC(=O)Cc1c(F)cccc1F
59 | 59 | COc1ccc(S(=O)(=O)NCC(=O)Nc2cccc(Br)c2)cc1
60 | 85 | C[C@@H](NC(=O)CNS(=O)(=O)Cc1ccccc1)c1ccccc1
61 | 63 | Cc1ccc(/C=C/S(=O)(=O)NCC(=O)Nc2ccc(OCc3ccccc3)cc2)cc1
62 | 60 | O=C(CNS(=O)(=O)c1ccc(Cl)cc1)Nc1ccccc1Br
63 | 86 | Cc1ccc(S(=O)(=O)NCC(=O)N[C@@H](C)c2ccccc2)cc1
64 | 62 to 110 | O=C(O)CC(=O)O
65 | 62 | Cc1ccc(S(=O)(=O)NCC(=O)Nc2cccc([N+](=O)[O-])c2)cc1
66 | 75 | Cc1ccc(S(=O)(=O)NCC(=O)NCc2ccc(Br)cc2)cc1
67 | 77 | O=C(CNS(=O)(=O)Cc1ccccc1)Nc1c(F)cccc1F
68 | 63 | O=C(CNS(=O)(=O)Cc1ccccc1)Nc1cccc(Br)c1
69 | 84 | Cc1ccc(S(=O)(=O)NCC(=O)OCc2ccccc2)cc1
